Measurements taken from patent US20190262453A1, “DESIGN AND COMPOSITION OF CELL-STABILIZED PHARMACEUTICAL FORMULATIONS” (THE REGENTS OF THE UNIVERSITY OF MICHIGAN, priority 2016, published 2019).
Like-named read-outs stand apart in the source and are kept apart here.

Columns and labels:
RAW264.7 cells [1] = assay: Cell viability (XTT assay); format: cell-based
Method: Cell Viability. Viability of RAW264.7 cells were performed using Cell Proliferation Kit II (XTT) (Roche Applied Science, Mannheim, Germany, Cat. No. 11465015001) using the manufacturer's instructions. […] Post 24 hours exposure to CFZ, the cells were incubated with the yellow XTT solution (final concentration 0.3 mg/ml) for 4 h. […] An increase in number of living cells directly correlates to the amount of orange formazan formed, as monitored by the solution absorbance at 500 nm (Abs500). The following formula was used to determine viability of drug and inhibitor treated cells using untreated cells (blank) as a control—Cell Viability=(Abs500, treated—Abs700,treated)/(Abs500, blank—Abs700,blank).

RAW264.7 cells [2] = test system: RAW264.7 cells
Method: Drug Uptake. Measurement of CFZ uptake in RAW264.7 cells was performed using a modified absorbance spectroscopy method using 9 M H2SO4 (pH<<0.1) to digest the entire cell population and extract CFZ from the cells. Cells at a very high seeding density of 50,000 cells/well, grown in a 96 well tissue culture plate in 280 μl/well of DMEM +10% FBS +1% P/S (growth media), were pre-incubated with varying concentrations of BafA1 (0-4 nM) and NPPB (0-200 μM) for 4 hours before adding CFZ dissolved in DMSO such that final concentrations of CFZ were in the range of 0-8 μM. Post 4 and 24 hours exposure to CFZ, growth media was aspirated out and the cells were washed with PBS twice before adding 100 μl/well of 9 M H2SO4 and incubated at room temperature for 30 minutes before spectrophotometric quantification using a Synergy 2 plate reader (BioTek, Winooski, Vt.) at 540 nm (Abs540) and 750 nm (Abs750) (for background). Standards were prepared on the same plate by adding 100 μl/well pre-determined standards of CFZ. Total uptake was reported as total picomoles of intracellular drug as measured and calculated using the standard curve.
Cell Viability Measurement: Comparing Wet Lab Experimental Study with Simulation Study. In order to compare wet lab experimental cell viability determination with that of model simulation, the rate at which drug accumulation occurred in the experimental study was calculated. […] Then, cell viability was calculated using the following equation: […]
In vitro analysis (CFZ accumulation). […] Furthermore, the following comparisons are reported as a percentage (%) of CFZ accumulation measured in uninhibited cells under the various tested CFZ concentrations and 8 μM CFZ concentration, in the wet lab experimental and simulation studies, respectively.

[3] = Mouse body weight and temperature during macrophage depletion and CFZ feeding; format: in vivo; conditions: mice, final measurement; four weeks diet, two weeks liposomes
Method: Mice (4 week old, male C57B16) were purchased from the Jackson Laboratory (Bar Harbor, Me.) and acclimatized for 1 week in a specific-pathogen-free animal facility. Clofazimine (CFZ) (C8895; Sigma, St. Louis, Mo.) was dissolved in sesame oil (Shirakiku, Japan) to achieve a concentration of 3 mg/ml, which was mixed with Powdered Lab Diet 5001 (PMI International, Inc., St. Louis, Mo.) to produce a 0.03% drug to powdered feed mix, and orally administered ad libitum for 4 weeks. A corresponding amount of sesame oil was mixed with chow for vehicle treatment (control). Mice were euthanized via carbon dioxide asphyxiation and exsanguination. Animal care was provided by the University of Michigan's Unit for Laboratory Animal Medicine (ULAM).
In order to deplete tissue macrophages, mice were treated with liposomes containing either 7 mg/mL clodronate or phosphate-buffered saline (PBS) (FormuMax Scientific Inc., Sunnyvale, Calif.) for up to six weeks. Liposomes were injected IP to eliminate macrophages of the liver, spleen, and peritoneal cavity. Mice were initially treated with 200 μL of liposomes, followed by 100 μL injections twice per week to ensure continual depletion of macrophages. […]
During the course of the experiment, the body weight and temperature of the mice were measured daily to track the impact of the loss of drug-sequestering cells on the general health of the mouse. […]

[4] = Biochemical analysis of CFZ in tissues; format: in vivo; conditions: clodronate-treated mice versus PBS
Method: Mice were fed CFZ or a control diet continuously for a four week period. Following two weeks of feeding, liposome treatment began for two weeks. After completing four weeks of feeding and two weeks of liposome treatment, the mice were sacrificed and tissues were collected.
The concentration of CFZ in organs was determined spectrophotometrically. After four weeks of CFZ- or vehicle-diet treatment, mice were euthanized via CO2 asphyxiation, and blood and organs were collected. Tissue (20-30 mg) was homogenized in 500 μL of RIPA buffer, and 350 μL of homogenate was removed drug was extracted with three passes of 1 mL of xylenes. The drug was then extracted from the xylene with three 1 mL passes of 9M sulfuric acid. The concentration of CFZ present in the tissue was then determined using a plate reader at wavelength 450 nm.

[5] = cited from earlier work

Q: For `CC(C)N=c1cc2n(-c3ccc(Cl)cc3)c3ccccc3nc-2cc1Nc1ccc(Cl)cc1` [CFZ, 3-(p-chloroanilino)-10-(p-chlorophenyl)-2, 10-dihydro-2-isopropyliminophenazine], which cell viability (RAW264.7 cells [1]; BafA1=4 nM and CFZ=10 μM, n=6) is on record?
A: 76±13%

Q: What about the cell viability (RAW264.7 cells [1]; BafA1=6 nM, all concentrations of CFZ) of the same compound?
A: 48-85%

Q: And the cell viability (RAW264.7 cells [1]; BafA1=8 nM, all concentrations of CFZ)?
A: 33-77%

Q: And the cell viability (RAW264.7 cells [1]; exposed to NPPB (all tested concentrations) prior to varying concentrations of CFZ)?
A: > 92%

Q: And the “effect on cell viability” value (RAW264.7 cells [1]; incubation of the substance alone, RAW264.7, XTT)?
A: no significant effect

Q: And the cell viability (RAW264.7 cells [1]; up to 4 nM BafA1 prior to up to 8 μM CFZ)?
A: > 91%

Q: And the “CFZ accumulation relative to uninhibited cells” value (RAW264.7 cells [2]; 2 nM BafA1, initial CFZ=4 μM, 4 hours)?
A: 80±13%

Q: And the “CFZ accumulation relative to uninhibited cells” value (RAW264.7 cells [2]; 2 nM BafA1, initial CFZ=4 μM, 24 hours)?
A: 67±12%

Q: What about the “CFZ accumulation relative to uninhibited cells” value (RAW264.7 cells [2]; 2 nM BafA1, initial CFZ=6 μM, 4 hours) of the same compound?
A: 75±11%

Q: What about the “CFZ accumulation relative to uninhibited cells” value (RAW264.7 cells [2]; 2 nM BafA1, initial CFZ=6 μM, 24 hours) of the same compound?
A: 71±19%

Q: What about the “CFZ accumulation relative to uninhibited cells” value (RAW264.7 cells [2]; 2 nM BafA1, initial CFZ=8 μM, 4 hours) of the same compound?
A: 63±9%

Q: And the “CFZ accumulation relative to uninhibited cells” value (RAW264.7 cells [2]; 2 nM BafA1, initial CFZ=8 μM, 24 hours)?
A: 67±12%

Q: What about the “CFZ accumulation relative to uninhibited cells” value (RAW264.7 cells [2]; BafA1=4 nM, initial CFZ=4 μM, 4 hours) of the same compound?
A: 29±4%

Q: And the “CFZ accumulation relative to uninhibited cells” value (RAW264.7 cells [2]; BafA1=4 nM, initial CFZ=4 μM, 24 hours)?
A: 42±6%

Q: What about the “CFZ accumulation relative to uninhibited cells” value (RAW264.7 cells [2]; BafA1=4 nM, initial CFZ=6 μM, 4 hours) of the same compound?
A: 47±9%

Q: And the “CFZ accumulation relative to uninhibited cells” value (RAW264.7 cells [2]; BafA1=4 nM, initial CFZ=6 μM, 24 hours)?
A: 38±9%

Q: What about the “CFZ accumulation relative to uninhibited cells” value (RAW264.7 cells [2]; BafA1=4 nM, initial CFZ=8 μM, 4 hours) of the same compound?
A: 43±8%

Q: And the “CFZ accumulation relative to uninhibited cells” value (RAW264.7 cells [2]; BafA1=4 nM, initial CFZ=8 μM, 24 hours)?
A: 26±4%

Q: What about the “CFZ accumulation relative to uninhibited cells” value (RAW264.7 cells [2]; NPPB=50 μM, CFZ=4 μM, 24 hours) of the same compound?
A: 73±10%

Q: What about the “CFZ accumulation relative to uninhibited cells” value (RAW264.7 cells [2]; NPPB=50 μM, CFZ=6 μM, 24 hours) of the same compound?
A: 73±17%

Q: What about the “CFZ accumulation relative to uninhibited cells” value (RAW264.7 cells [2]; NPPB=50 μM, CFZ=8 μM, 24 hours) of the same compound?
A: 72±10%

Q: What about the “CFZ accumulation relative to uninhibited cells” value (RAW264.7 cells [2]; NPPB=100 μM, CFZ=4 μM, 24 hours) of the same compound?
A: 46±5%

Q: And the “CFZ accumulation relative to uninhibited cells” value (RAW264.7 cells [2]; NPPB=100 μM, CFZ=6 μM, 24 hours)?
A: 41±12%

Q: What about the “CFZ accumulation relative to uninhibited cells” value (RAW264.7 cells [2]; NPPB=100 μM, CFZ=8 μM, 24 hours) of the same compound?
A: 41±7%

Q: What about the “CFZ accumulation relative to uninhibited cells” value (RAW264.7 cells [2]; NPPB=200 μM, CFZ=4 μM, 24 hours) of the same compound?
A: 30±7%

Q: And the “CFZ accumulation relative to uninhibited cells” value (RAW264.7 cells [2]; NPPB=200 μM, CFZ=6 μM, 24 hours)?
A: 32±12%

Q: And the “CFZ accumulation relative to uninhibited cells” value (RAW264.7 cells [2]; NPPB=200 μM, CFZ=8 μM, 24 hours)?
A: 37±7%

Q: What about the “rate of drug accumulation” value (RAW264.7 cells [2]; mouse, 8 µM) of the same compound?
A: ~0.01 picomol/cell/day

Q: And the “change in CFZ accumulation in inhibited relative to uninhibited cells” value (RAW264.7 cells [2]; pre-incubated with various concentrations of NPPB, CFZ for 4 hours at varying concentrations)?
A: no significant change

Q: What about the “Average Body Temperature (n = 3-4)” value [3] of the same compound?
A: 34.3 ± 0.3 °C

Q: What about the “Average Body Weight (n = 3-4)” value [3] of the same compound?
A: 25.7 ± 0.8 g

Q: What about the “reduction in the total amount of drug found in the liver” value [4] of the same compound?
A: 75±7%

Q: And the “reduction in the total amount of drug found in the spleen” value [4]?
A: 88±7%

Q: And the “difference in total amount of drug found in the kidney” value ([4]; p=0.77)?
A: no difference

Q: What about the “pharmacologically-relevant concentrations measured in serum” value [5] of the same compound?
A: 1 to 20 μM
